Each structure is given as a SMILES string.

This is an account of results in PMC11278016, “Discovery of Prenyltransferase-Guided Hydroxyphenylacetic Acid Derivatives from Marine Fungus Penicillium sp. W21C371” (Marine Drugs, 2024).

For assay [1], the target named is Escherichia coli β-glucuronidase (EcGUS) (Escherichia coli, UniProt P05804). As to the kind of experiment: EcGUS inhibition assay. The assay is classed as biochemical. The conditions noted are these: for IC50: EcGUS inhibition, mean ± SD, three independent experiments; for Ki′ (inhibition constant of the enzyme–substrate complex): EcGUS–substrate complex, secondary plot of Y-intercept versus [I]; for type of inhibition: Lineweaver–Burk plots; for Ki: free EcGUS, secondary plot of slope versus [I], Lineweaver–Burk, read-out: Ki (inhibition constant of the enzyme); for inhibition at 100 µM: preliminary screening at a concentration of 100 μM, read-out: relative inhibitory rate. How it is done:
All isolates 1–17 were evaluated for their in vitro inhibitory activity against EcGUS, a potential target for the treatment of drug-induced gastrointestinal disorders, employing D-saccharic acid 1,4-lactone (DSL) as the positive control. […] In view of the potent inhibitory activity of 2 and 3 against EcGUS, their kinetic mechanisms of inhibition were determined using Lineweaver–Burk plots (Figure 5 and Table S1). The inhibition constants of the enzyme Ki and the enzyme–substrate complex Ki^′ were obtained by secondary plots of “slope versus [I]” and “Y-intercept versus [I]”, respectively. […] As a mixed-type inhibitor of EcGUS, 3 was supposed to bind either the free EcGUS or the EcGUS–substrate complex. […] To the best of our knowledge, 2 and 3 represent the first citridone and ergosterol derivatives with potent EcGUS-inhibitory activity. However, 2 and 3 were obtained in limited amount in the present study, preventing the in vivo evaluation of their EcGUS inhibition activity. The optimization of the fermentation and separation processes with the aim of increasing the yields of 2 and 3 is underway, which may help to accumulate greater amounts of the two compounds for further in-depth pharmacological studies.
Optical rotations were obtained with a Rudolph Research Autopol III automatic polarimeter. IR spectra were recorded on a Thermo Nicolet 6700 FT-IR microscope instrument (FT-IR microscope transmission) in KBr pellets. UV spectra were measured on a TU-1900 spectrometer (Persee, Beijing, China). Meanwhile, 1D and 2D-NMR spectra were obtained at 600 MHz for ^1H and 150 MHz for ^13C on a Bruker Avance 600 spectrometer, with solvent peaks used as references. HRESIMS data were measured on an Agilent-6210-LC/TOF mass spectrometer (Agilent Technologies, Inc., Santa Clara, CA, USA). EcGUS-inhibitory activity was measured spectrophotometrically using a SpectraMax Plus 384 microplate reader (Molecular Devices, San Jose, CA, USA). Column chromatography (CC) was performed on silica gel (SiO2; 200–300 mesh; Qingdao Marine Chemical Co., Ltd.), ODS C-18 gel (50 mm; YMC Co., Ltd., Kyoto, Japan), and MCI CHP20P gel (75–150 μm, Tokyo, Japan). Semi-preparative HPLC was performed on an Cosmosil 5C18-MS-II column (5 μm, 250 × 10 mm) with a Shimadzu LC-20AT system eluting with methanol/water or acetonitrile/water at a flow rate of 3 mL/min. Chiral separation was performed on a Chiralpak AD-H column (5 μm, 4.6 × 250 mm). Thin layer chromatography (TLC) was performed on precoated silica gel GF254 plates (Qingdao Marine Chemical Co., Ltd., Qingdao, China) and visualized by UV light and/or spraying with 10% H2SO4 in 95% EtOH, followed by heating. All solvents used were of analytical grade and obtained from commercially available sources. All reagents used for biological evaluation were obtained from Sigma-Aldrich (St. Louis, MO, USA).
The EcGUS inhibition assay was performed according to the method previously reported, employing DSL as the positive control. The results are presented as means ± SD for three independent experiments.

Another assay relates to Candida albicans. Further details: method as in PMID 19160522. The settings on record: against Candida albicans; cited from earlier work.
Assay [2] has as its system methicillin-resistant Staphylococcus aureus (MRSA). Further details: method as in PMID 24643052. The conditions noted are these: MRSA virulence factor; cited from earlier work.

Chain of Escherichia coli β-glucuronidase (EcGUS) (P05804 whole entry): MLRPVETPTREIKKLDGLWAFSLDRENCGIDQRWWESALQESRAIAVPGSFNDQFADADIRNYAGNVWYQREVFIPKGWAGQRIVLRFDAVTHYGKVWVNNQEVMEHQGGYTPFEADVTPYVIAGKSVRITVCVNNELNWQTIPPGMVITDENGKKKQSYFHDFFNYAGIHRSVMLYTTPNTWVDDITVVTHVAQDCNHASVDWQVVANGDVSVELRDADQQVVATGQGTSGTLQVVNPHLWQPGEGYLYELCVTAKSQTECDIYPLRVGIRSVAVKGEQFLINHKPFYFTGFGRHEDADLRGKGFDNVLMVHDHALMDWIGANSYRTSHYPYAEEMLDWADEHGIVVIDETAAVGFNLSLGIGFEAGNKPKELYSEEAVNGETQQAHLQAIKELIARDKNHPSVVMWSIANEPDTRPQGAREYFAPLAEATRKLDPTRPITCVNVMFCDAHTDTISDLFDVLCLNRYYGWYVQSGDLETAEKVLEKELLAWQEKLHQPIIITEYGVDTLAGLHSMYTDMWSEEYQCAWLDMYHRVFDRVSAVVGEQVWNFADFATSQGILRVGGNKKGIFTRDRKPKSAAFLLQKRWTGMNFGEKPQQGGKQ

With `CC(=C[C@@H](C)[C@H]1CC[C@@H]2[C@]1(C)CC=C1[C@]23C=C[C@]2(C[C@@H](O)CC[C@]12C)OO3)[C@H](C)C(C)C` [Compound 3, 5α,8α-epidioxy-23,24(R)-dimethylcholesta-6,9(11),22-trien-3β-ol], in assay [1], the IC50 turned out to be 21.6 ± 0.76 µM, the “Ki′ (inhibition constant of the enzyme–substrate complex)” value amounted to 48.80 µM, the type of inhibition result is recorded as “mixed-type” and the Ki was found to be 89 µM. Also, the inhibition at 100 µM in assay [1] is above 60%. For the same compound, the Vmax in assay [1] (inhibitor concentration 0.015 mM) turned out to be 29.05 ± 1.14 mg/μmol⋅min. Moreover, the Vmax in assay [1] (inhibitor concentration 0.030 mM) was determined as 22.03 ± 1.06 mg/μmol⋅min. The Vmax in assay [1] (inhibitor concentration 0.050 mM) came to 18.22 ± 0.64 mg/μmol⋅min.

`CC1=CC2(C)Oc3c(-c4ccccc4)c[nH]c(=O)c3C2C1C` (stereo not shown) [Compound 2, citridone A]: the “potentiation of miconazole activity” value in the assay with Candida albicans was “potentiator of miconazole”. Also, the “inhibition of staphyloxanthin biosynthesis” value in assay [2] is recorded as “inhibit the biosynthesis of staphyloxanthin”. In assay [1], 44.6 ± 0.84 µM corresponded to half-maximal inhibition (IC50), the “Ki′ (inhibition constant of the enzyme–substrate complex)” value was found to be 69.20 µM, the type of inhibition result was “non-competitive inhibitor” and the Ki was 76.3 µM. Further, in assay [1], the inhibition at 100 µM is above 60%. Moreover, in assay [1] (inhibitor concentration 0.02 mM), the Vmax turned out to be 38.33 ± 2.97 mg/μmol⋅min. The Vmax in assay [1] (inhibitor concentration 0.04 mM) is 32.36 ± 3.11 mg/μmol⋅min. Further, the Vmax in assay [1] (inhibitor concentration 0.08 mM) came to 23.58 ± 2.49 mg/μmol⋅min.

In the case of `O=C(O)[C@@H](O)[C@H]1OC(=O)[C@H](O)[C@H]1O` [DSL, D-saccharic acid 1,4-lactone, reference compound], half-maximal inhibition in assay [1] (IC50) required 47.9 ± 0.89 µM.

By IC50 is commonly meant the concentration that inhibits the measured activity by half. The term Ki denotes a dissociation constant, usually derived from enzyme kinetics or from competition with a known ligand.
